Laboratory results published in US5620960A, “Use of D-allose as an immunosuppressive agent” (UOP, priority 1994, dated 1997).
Entries after “also recorded” stand apart in the source; their conditions may differ.

Columns and labels:
[1] = system: salmonella; assay: salmonella/mammalian--microsome reverse mutation assay; type: cell-based
Description: 1) salmonella/mammalian--microsome reverse mutation assay;

[2] = system: mouse lymphoma; type: cell-based
Description: 2) mouse lymphoma forward mutation assay;

[3] = system: chinese hamster ovary cells; type: cell-based
Description: 3) chromosomal aberrations in chinese hamster ovary cells;

[4] = system: Balb cells; type: cell-based
Description: 4) in vitro transformation of Balb cells;

[5] = system: human lymphocytes; type: cell-based
Description: 5) sister chromatid exchange in human lymphocytes with and without activation.

[6] = system: Male Rats; assay: Acute Oral Toxicity Study in Male Rats; type: in vivo, rat
Description: Acute Oral Toxicity Study in Male Rats

[7] = system: segmented neutrophils, leukocytes, erythrocytes, platelets; assay: 28-day rat gavage study: Hematology (blood cell counts); type: in vivo, rat (Crl:CD®BR); details: for Segmented Neutrophils (mean): terminal (28 days); for Segmented Neutrophils (mean) / Band Neutrophils (mean) / Basophils (mean) / Other Cells (mean) / Eosinophils (mean) / Monocytes (mean) / Erythrocytes (mean) / Leukocytes (mean) / Platelets (mean) / Lymphocytes (mean): N 5; for Band Neutrophils (mean) / Basophils (mean) / Other Cells (mean) / Eosinophils (mean) / Monocytes (mean) / Erythrocytes (mean) / Leukocytes (mean) / Platelets (mean) / Lymphocytes (mean): terminal; for Band Neutrophils (mean) / Basophils (mean) / Other Cells (mean): control 0.0; for Leukocytes (mean): control 9.6; for Platelets (mean): p ≤ 0.01; for Lymphocytes (mean): control 7.4
Protocol: (§1) D-allose or deionized water was administered to 15 male and 15 female rats (Crl:CD®BR rats approximately 4 weeks of age from Charles River Laboratories) by gavage once daily for 28 days at dosage levels of D-allose of 3.1 and 5.1 g/Kg/day.
(§2) Each rat was observed twice daily for mortality, morbidity and overt signs of toxicity. Detailed observations were performed once during each study week. Individual body weights, food consumption, food efficiency and water consumption were recorded daily. Hematology, biochemistry and urinalysis evaluations were conducted on all male and female animals during the last week of study. At study termination, all animals were euthanized. […] A complete set of major tissues and organs was harvested and selected organ weights were determined. Protocol-specified tissues were processed histologically and microscopic examination was conducted.
(§3) Clinical laboratory studies were conducted on all main animals at termination of study. Blood samples were obtained from the orbital sinus following an overnight fasting period in which water was available. Urine was collected during the fasting period.
(§4) As a result, bone marrow smears were examined for all animals.

[8] = system: Crl:CD®BR rats; parameters: species or system rat (Crl:CD®BR); details: rat, in vivo
Protocol: as §1, §2
The rats were observed twice daily for signs of overt toxicity at the times of the morbidity/mortality checks. Detailed observations were conducted once each study week during the 28 days of the study.
Individual body weights were recorded daily for the 28 days of the study.
For the first 28 days of the study, individual food consumption was recorded daily and food efficiency was calculated. […] Increases and decreases occurred in food efficiency values for males and females at all treatment levels, with no obvious trend.
Individual water consumption was recorded daily for the 28 days of the study.

[9] = 28-day rat gavage study: Biochemistry and urinalysis; type: in vivo, rat (Crl:CD®BR); details: 28 days
Protocol: as §1, §2, §3

[10] = system: bone marrow; assay: 28-day rat gavage study: Bone Marrow smears; type: in vivo, rat (Crl:CD®BR)
Protocol: as §1, §2, §4

[11] = system: major tissues and organs; assay: 28-day rat gavage study: Anatomic Pathology (necropsy and histopathology); type: in vivo, rat (Crl:CD®BR); details: 28 days gavage, listed organs
Protocol: as §1, §2

[12] = D-allose Excretion Routes ([^14 C]D-allose, liquid scintillation counting); type: in vivo, rat
Description: (§5) This study was patterned after that Example 1 where a satellite group of animals received radiolabeled D-allose to establish excretion routes. On day 28, the animals in the satellite groups (5 controls, 5 males and 5 females) received a single dose of [^14 C]D-allose for-study days 1-28 at the same dose concentration as the non-radiolabeled material except for the "Control Satellite Group" which received a single high dose containing radiolabeled D-allose.
(§6) On days 1-27, all control group animals (main and satellite) received deionized water at the same dosage volume as the test animals. However, on day 28 the satellite control animals became "Unadapted High Dose Test Animals" in that they received a high dose (5.1 g/kg) of radiolabeled D-allose. In this manner the "Unadapted High Dose Test Animals" could be directly compared to the multiple high dose animals which were adapted by administration of the high dose for 28 days.
Each rat was observed twice daily for mortality, morbidity and overt signs of toxicity. Detailed observations were performed once during each study week. Individual body weights, food consumption, food efficiency and water consumption were recorded daily. […] Feces samples were collected at 24, 48, 72 and 96 hours after radiolabeled dosing from the satellite group animals. Duplicate aliquots of expired air solution, urine, feces and cage wash were analyzed by liquid scintillation counting (LSC). At study termination, all animals were euthanized. The carcasses from the satellite groups were analyzed for radioactive content only.

[13] = rat, in vivo
Description: as §5, §6
HPLC (High Pressure Liquid Chromatography) of urine from treated animals was compared with C^14 radiolabeled D-allose spiked urine from control animals.

[14] = water solubility; type: physicochemical
[15] = acute oral, 5 grams/Kg, male rats
[16] = females, D-allose 3.1 g/kg/day, control 0.1
[17] = males, D-allose 3.1 g/kg/day, control 0.2
[18] = males, D-allose 5.1 g/kg/day, control 0.2

O=C[C@H](O)[C@H](O)[C@H](O)[C@H](O)CO [D-allose]
mutagenic properties [1]: no mutagenic properties | mutagenic properties [2]: no mutagenic properties | mutagenic properties [3]: no mutagenic properties | mutagenic properties [4]: no mutagenic properties | mutagenic properties [5]: no mutagenic properties | body weight changes [6, 15]: no remarkable body weight changes | mortalities [6, 15]: no mortalities | pharmacotoxic signs [6, 15]: no pharmacotoxic signs | visible post-mortem abnormalities ([6]; rat, in vivo, po): no visible post-mortem abnormalities | segmented neutrophils in some high dose group animals ([7]; 5.1 g/Kg/day, 28 days): very low or not countable | platelets (result in words) ([7]; 28 days gavage, 3.1 and 5.1 g/Kg/day, both sexes): significant reduction in platelet formation; also recorded: dose-related reduction in numbers in both sexes; also recorded: dose-related reduction in platelet counts in both sexes | segmented neutrophils (result in words) ([7]; 28 days gavage, 3.1 and 5.1 g/Kg/day, rats): dose-related reduction in segmented neutrophil production; also recorded: marked decrease in segmented neutrophils which was dose-related; also recorded: reduction in segmented neutrophils | effect on the erythroid series ([7]; 28 days gavage, rats): no apparent effect on the erythroid series | total leukocyte counts (result in words) ([7]; 28 days gavage, rats): reductions in total leukocyte counts | Segmented Neutrophils (mean) ([7]; females, D-allose 3.1 g/kg/day, control 1.8): 0.5 × 10^3 /cmm | Band Neutrophils (mean) ([7]; females, D-allose 3.1 g/kg/day): 0.0 × 10^3 /cmm | Basophils (mean) ([7]; females, D-allose 3.1 g/kg/day): 0.0 × 10^3 /cmm | Other Cells (mean) ([7]; females, D-allose 3.1 g/kg/day): 0.0 × 10^3 /cmm | Eosinophils (mean) [7, 16]: 0.1 × 10^3 /cmm | Monocytes (mean) [7, 16]: 0.1 × 10^3 /cmm | Erythrocytes (mean) ([7]; females, D-allose 3.1 g/kg/day, control 6.17): 6.24 × 10^6 /cumm | Leukocytes (mean) ([7]; females, D-allose 3.1 g/kg/day): 6.5 × 10^3 /cumm | Platelets (mean) ([7]; females, D-allose 3.1 g/kg/day, control 992): 567 × 10^3 /cmm | Segmented Neutrophils (mean) ([7]; females, D-allose 5.1 g/kg/day, control 1.8): 0.1 × 10^3 /cmm | Band Neutrophils (mean) ([7]; females, D-allose 5.1 g/kg/day): 0.0 × 10^3 /cmm | Basophils (mean) ([7]; females, D-allose 5.1 g/kg/day): 0.0 × 10^3 /cmm | Other Cells (mean) ([7]; females, D-allose 5.1 g/kg/day): 0.0 × 10^3 /cmm | Eosinophils (mean) ([7]; females, D-allose 5.1 g/kg/day, control 0.1): 0.1 × 10^3 /cmm | Erythrocytes (mean) ([7]; females, D-allose 5.1 g/kg/day, control 6.17): 6.42 × 10^6 /cumm | Leukocytes (mean) ([7]; females, D-allose 5.1 g/kg/day): 5.4 × 10^3 /cumm | Platelets (mean) ([7]; females, D-allose 5.1 g/kg/day, control 992): 414 × 10^3 /cmm | Segmented Neutrophils (mean) ([7]; males, D-allose 3.1 g/kg/day, control 1.9): 0.9 × 10^3 /cmm | Band Neutrophils (mean) ([7]; males, D-allose 3.1 g/kg/day): 0.0 × 10^3 /cmm | Basophils (mean) ([7]; males, D-allose 3.1 g/kg/day): 0.0 × 10^3 /cmm | Other Cells (mean) ([7]; males, D-allose 3.1 g/kg/day): 0.0 × 10^3 /cmm | Eosinophils (mean) [7, 17]: 0.1 × 10^3 /cmm | Monocytes (mean) [7, 17]: 0.1 × 10^3 /cmm | Erythrocytes (mean) ([7]; males, D-allose 3.1 g/kg/day, control 6.85): 7.10 × 10^6 /cumm | Lymphocytes (mean) ([7]; males, D-allose 3.1 g/kg/day): 9.1 × 10^3 /cmm | Leukocytes (mean) ([7]; males, D-allose 3.1 g/kg/day): 10.3 × 10^3 /cumm | Platelets (mean) ([7]; males, D-allose 3.1 g/kg/day, control 1072): 546 × 10^3 /cmm | Segmented Neutrophils (mean) ([7]; males, D-allose 5.1 g/kg/day, control 1.9): 0.2 × 10^3 /cmm | Band Neutrophils (mean) ([7]; males, D-allose 5.1 g/kg/day): 0.0 × 10^3 /cmm | Basophils (mean) ([7]; males, D-allose 5.1 g/kg/day): 0.0 × 10^3 /cmm | Other Cells (mean) ([7]; males, D-allose 5.1 g/kg/day): 0.0 × 10^3 /cmm | Eosinophils (mean) [7, 18]: 0.1 × 10^3 /cmm | Monocytes (mean) [7, 18]: 0.1 × 10^3 /cmm | Erythrocytes (mean) ([7]; males, D-allose 5.1 g/kg/day, control 6.85): 7.03 × 10^6 /cumm | Lymphocytes (mean) ([7]; males, D-allose 5.1 g/kg/day): 5.6 × 10^3 /cmm | Leukocytes (mean) ([7]; males, D-allose 5.1 g/kg/day, significantly different from control): 5.9 × 10^3 /cumm | Platelets (mean) ([7]; males, D-allose 5.1 g/kg/day, control 1072): 320 × 10^3 /cmm | duration of suppressive effect ([7]; rats, suppression of segmented neutrophil and platelet production): remains only so long as D-allose administration is continued | effect on appearance or behavior (clinical signs) [8]: no definitive D-allose-related effect | mean food consumption values or mean food efficiency values [8]: no D-allose-related effect | mean water consumption values [8]: no D-allose-related effect | Cholesterol ([9]; males, high dose (5.1 g/kg/day), vs. 51 mg/dl, significantly increased): 72 mg/dL | pH ([9]; treated animals): decreased | Urine volumes ([9]; treated groups): decreased | urine specific gravity ([9]; treated groups): increased | numbers of late stage neutrophils in bone marrow ([10]; 3.1 and 5.1 g/kg/day, most striking in the high dose groups): decreased numbers of late stage neutrophils | mature myeloid cells in the bone marrow smears ([10]; 28 days gavage, rats): marked reduction in mature myeloid cells | bone marrow erythroid series ([10]; all groups): well represented with a normal maturation sequence | cytological integrity of the cells in the neutrophil series ([10]; both dosage groups (3.1 and 5.1 g/kg/day)): overall decrease in cytological integrity | Myeloid to erythroid ratios in bone marrows ([10]; both treatment groups, usually, control approximately 1.6 to 3.0): less than 1.0 | bone marrow cellularity and megakaryocytes ([10]; control and both treatment groups): very cellular with adequate numbers of active megakaryocytes in varying stages of maturity | findings at necropsy or on histopathological examination [11]: no treatment related findings | radioactivity retained in carcass ([12]; all groups): less than 1% | excretion of radiolabel in the feces, of the recovered dose ([12]; corrected for recovery): 6 to 9% | urinary excretion, of the recovered dose ([12]; corrected for recovery, average, all three test groups): approximately 90% | differences in the rates or routes of excretion between treatment groups ([12]; radiolabeled D-allose): no substantial differences | radioactivity excretion routes ([12]; radiolabeled D-allose, rats): most of the radioactivity was excreted in the urine with a small amount in the feces and lesser amounts in exhaled air and retained in the carcass | Radiation in exhaled air ([12]; rat, in vivo): less than 0.5% | effects on survival, appearance, behavior, body weights, food consumption or water consumption ([12]; rat, in vivo): no D-allose-related effects | HPLC of urine from treated animals [13]: major peak corresponding to the spiked D-allose peak | undigested D-allose in the urine [13]: confirmed the presence of undigested D-allose in the urine | water solubility [14]: high water solubility
